Data from patent EP4722363A1, “RNAI AGENT FOR INHIBITING ANGPTL3 EXPRESSION AND USE THEREOF” (YUN HO BIO CO., LTD, priority 2023, dated 2024).

Columns and labels:
ANGPTL3 Protein [1] = experiment: PHH free uptake, inhibition of ANGPTL3, ELISA of supernatant; assay type: cell-based; settings: primary human hepatocytes, 72 hours
Experimental: PHH cells were thawed and adjusted to a density of 6×10^5 cells/mL. Then, 10 µL of the compound from the dilution plate was added to the cell culture plate, resulting in final compound concentrations of 100, 40, 12.5, 5, and 2 nM. The cells were seeded into a 96-well plate at a density of 54,000 cells per well (90 µL/well), with a final culture volume of 100 µL per well. The cells were cultured in a 5% CO2 incubator at 37°C for 72 hours.
(§1) The supernatant from the PHH and PCH cultures from the previous steps was collected, transferred to a new 96-well V-bottom plate, and centrifuged. Human Angiopoietin-like 3 protein (hANGPTL3 protein; DANL30) ELISA test was performed according to the instructions of HANGPTL 3 protein Kit.
(§2) Data Analysis: Four Parameter Logistic method. This method constructs a standard curve by plotting, with the y-axis as the average absorbance of the standards and the x-axis as the concentration, drawing a best-fit curve through the points on the graph. The OD value of the log concentration of the sample's HANGPTL3 protein is determined against the best-fit line of the log concentration by regression analysis. [formula]
(§3) Sequences with good activity in Table 8 were evaluated for in vitro inhibitory activity against ANGPTL3 Protein in primary human hepatocytes (PHH) and primary cynomolgus monkey hepatocytes (PCH). Table 10. In Vitro Inhibitory Activity of MCPP-siRNAs against ANGPTL3 mRNA in PHH Cell Line

ANGPTL3 Protein [2] = experiment: PCH free uptake, inhibition of ANGPTL3, ELISA of supernatant; assay type: cell-based; settings: primary cynomolgus monkey hepatocytes, 72 hours
Experimental: PCH cells were resuscitated using 10% FBS InvitroGRO™ HT Medium, and subsequently, the cell density was adjusted to 3×10^5 cells/mL using 10% FBS InvitroGRO™ CP Medium. Then, 10 µL of the compound from the dilution plate was added to the cell culture plate, resulting in final compound concentrations of 25, 5, and 1 nM. The cells were seeded into a 96-well plate at a density of 27,000 cells per well (90 µL/well), with a final culture volume of 100 µL per well. The cells were cultured in a 5% CO2 incubator at 37 °C for 72 hours.
as §1, §2, §3

Substance | IC50 (ANGPTL3 Protein [1]) [nM] | Average Inhibition in PCH % (ANGPTL3 Protein [2]; 1nM) [%] | Average Inhibition in PCH % (ANGPTL3 Protein [2]; 5nM) [%] | Average Inhibition in PCH % (ANGPTL3 Protein [2]; 25nM) [%]
2002-018-001: GalNAc-conjugated modified ANGPTL3 siRNA, sense SEQ ID NO 39, antisense SEQ ID NO 13 (sense CAUAGUGAAGCAAUCUAAU; antisense AUUAGAUUGCUUCACUAUGGA; GalNAc conjugated, chemically modified, pattern not given here) [Duplex 2002-018-001] | 1.9 |  |  | 
2002-018-002: GalNAc-conjugated modified ANGPTL3 siRNA, sense SEQ ID NO 34, antisense SEQ ID NO 13 (sense CAUAGUGAAGCAAUCUAAU; antisense AUUAGAUUGCUUCACUAUGGA; GalNAc conjugated, chemically modified, pattern not given here) [Duplex 2002-018-002] | 0.96 |  |  | 
2002-033-001: GalNAc-conjugated modified ANGPTL3 siRNA, sense SEQ ID NO 38, antisense SEQ ID NO 12 (sense CAUAGUGAAGCAAUCUAAU; antisense AUUAGAUUGCUUCACUAUGGA; GalNAc conjugated, chemically modified, pattern not given here) [Duplex 2002-033-001] | 1.08 | 53.11 | 67.45 | 68.80
2002-033-002: GalNAc-conjugated modified ANGPTL3 siRNA, sense SEQ ID NO 33, antisense SEQ ID NO 12 (sense CAUAGUGAAGCAAUCUAAU; antisense AUUAGAUUGCUUCACUAUGGA; GalNAc conjugated, chemically modified, pattern not given here) [Duplex 2002-033-002] | 0.84 |  |  | 
2002-034-001: GalNAc-conjugated modified ANGPTL3 siRNA, sense SEQ ID NO 38, antisense SEQ ID NO 13 (sense CAUAGUGAAGCAAUCUAAU; antisense AUUAGAUUGCUUCACUAUGGA; GalNAc conjugated, chemically modified, pattern not given here) [Duplex 2002-034-001] | 1.38 | 50.50 | 63.43 | 66.66
2002-034-002: GalNAc-conjugated modified ANGPTL3 siRNA, sense SEQ ID NO 33, antisense SEQ ID NO 13 (sense CAUAGUGAAGCAAUCUAAU; antisense AUUAGAUUGCUUCACUAUGGA; GalNAc conjugated, chemically modified, pattern not given here) [Duplex 2002-034-002] | 1.3 | 45.42 | 60.18 | 63.01
2002-050-L96: L96-conjugated comparator siRNA, sense SEQ ID NO 43, antisense SEQ ID NO 18 (sense CAUAGUGAAGCAAUCUAAU; antisense AUUAGAUUGCUUCACUAUGGA; L96 GalNAc conjugate, position not given here, modification pattern not given here) [Duplex 2002-050-L96, reference compound] | 2.6 |  |  | 
2008-010-002: GalNAc-conjugated modified ANGPTL3 siRNA, sense SEQ ID NO 35, antisense SEQ ID NO 27 (sense GAGAAGAACUACAUAUAAA; antisense UUUAUAUGUAGUUCUUCUCAG; GalNAc conjugated, chemically modified, pattern not given here) [Duplex 2008-010-002] | 0.98 |  |  | 
2008-011-001: GalNAc-conjugated modified ANGPTL3 siRNA, sense SEQ ID NO 40, antisense SEQ ID NO 28 (sense GAGAAGAACUACAUAUAAA; antisense UUUAUAUGUAGUUCUUCUCAG; GalNAc conjugated, chemically modified, pattern not given here) [Duplex 2008-011-001] | 2.6 | 57.51 | 72.91 | 77.81
2008-011-002: GalNAc-conjugated modified ANGPTL3 siRNA, sense SEQ ID NO 35, antisense SEQ ID NO 28 (sense GAGAAGAACUACAUAUAAA; antisense UUUAUAUGUAGUUCUUCUCAG; GalNAc conjugated, chemically modified, pattern not given here) [Duplex 2008-011-002] | 0.75 | 54.65 | 71.25 | 76.57
2008-018-001: GalNAc-conjugated modified ANGPTL3 siRNA, sense SEQ ID NO 41, antisense SEQ ID NO 27 (sense GAGAAGAACUACAUAUAAA; antisense UUUAUAUGUAGUUCUUCUCAG; GalNAc conjugated, chemically modified, pattern not given here) [Duplex 2008-018-001] | 2.34 | 59.56 | 73.29 | 76.55
2008-018-002: GalNAc-conjugated modified ANGPTL3 siRNA, sense SEQ ID NO 36, antisense SEQ ID NO 27 (sense GAGAAGAACUACAUAUAAA; antisense UUUAUAUGUAGUUCUUCUCAG; GalNAc conjugated, chemically modified, pattern not given here) [Duplex 2008-018-002] | 0.96 |  |  | 
2008-019-001: GalNAc-conjugated modified ANGPTL3 siRNA, sense SEQ ID NO 41, antisense SEQ ID NO 28 (sense GAGAAGAACUACAUAUAAA; antisense UUUAUAUGUAGUUCUUCUCAG; GalNAc conjugated, chemically modified, pattern not given here) [Duplex 2008-019-001] | 1.61 | 58.78 | 73.01 | 75.51
2008-019-002: GalNAc-conjugated modified ANGPTL3 siRNA, sense SEQ ID NO 36, antisense SEQ ID NO 28 (sense GAGAAGAACUACAUAUAAA; antisense UUUAUAUGUAGUUCUUCUCAG; GalNAc conjugated, chemically modified, pattern not given here) [Duplex 2008-019-002] | 1.11 | 52.37 | 70.28 | 73.74
2008-035-001: GalNAc-conjugated modified ANGPTL3 siRNA, sense SEQ ID NO 42, antisense SEQ ID NO 28 (sense GAGAAGAACUACAUAUAAA; antisense UUUAUAUGUAGUUCUUCUCAG; GalNAc conjugated, chemically modified, pattern not given here) [Duplex 2008-035-001] | 2.34 | 46.03 | 63.23 | 68.96
2008-035-002: GalNAc-conjugated modified ANGPTL3 siRNA, sense SEQ ID NO 37, antisense SEQ ID NO 28 (sense GAGAAGAACUACAUAUAAA; antisense UUUAUAUGUAGUUCUUCUCAG; GalNAc conjugated, chemically modified, pattern not given here) [Duplex 2008-035-002] | 2.23 |  |  | 
ARO-05488-003-NAG37: GalNAc-conjugated comparator ANGPTL3 siRNA, sense SEQ ID NO 44, antisense SEQ ID NO 45 (sense GCUCAACAUAUUUGAUCAGUA; antisense UACUGAUCAAAUAUGUUGAGC; GalNAc (NAG37) conjugate, chemistry not fully specified) [reference compound] | 7.19 | 28.48 | 49.83 | 60.00
